In patent EP2027081B1, “THERAPEUTIC PROSTAGLANDIN COMPOUNDS FOR THE TREATMENT OF GLAUCOMA” (ALLERGAN, INC., priority 2006, dated 2007):
pEC50, pKi: −log10 of the molar value. Read-outs that look alike come from different tables or passages of the source.

How the values were obtained:
hEP2/Gqs5 = target: T1, hEP2/Gqs5 (Homo sapiens, UniProt P43116); assay: FLIPR calcium signal study, HEK-293(EBNA) cells; format: cell-based; details: for EC50: Table 1, Ca2+ signal, NA means not active, read-out: FUNCTIONAL (Ca2+, EC50, nM) HEP 2; for pEC50: Table 2, unit inferred, read-out: FUNCTIONAL HEP2
T1 construct: expressed in transfected cells; host or cells: HEK-293(EBNA)
T1 sequence (P43116 whole entry): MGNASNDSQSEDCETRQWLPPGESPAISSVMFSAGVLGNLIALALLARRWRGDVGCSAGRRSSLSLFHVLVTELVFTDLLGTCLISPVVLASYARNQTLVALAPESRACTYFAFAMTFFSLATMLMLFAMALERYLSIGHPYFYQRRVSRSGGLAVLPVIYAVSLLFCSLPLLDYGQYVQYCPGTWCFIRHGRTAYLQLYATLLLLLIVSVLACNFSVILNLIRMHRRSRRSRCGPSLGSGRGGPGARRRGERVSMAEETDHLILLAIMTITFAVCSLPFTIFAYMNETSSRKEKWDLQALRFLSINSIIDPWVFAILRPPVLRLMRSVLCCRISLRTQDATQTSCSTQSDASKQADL
Experimental: (§1) Cells were seeded at a density of 5x10^4 cells per well in Biocoat® Poly-D-lysine-coated black-wall, clear-bottom 96-well plates (Becton-Dickinson) and allowed to attach overnight in an incubator at 37 °C. Cells were then washed two times with HBSS-HEPES buffer (Hanks Balanced Salt Solution without bicarbonate and phenol red, 20 mM HEPES, pH 7.4) using a Denley Cellwash plate washer (Labsystems). After 45 minutes of dye-loading in the dark, using the calcium-sensitive dye Fluo-4 AM at a final concentration of 2 µM, plates were washed four times with HBSS-HEPES buffer to remove excess dye leaving 100 µl in each well. Plates were re-equilibrated to 37 °C for a few minutes.
Cells were excited with an Argon laser at 488 nm, and emission was measured through a 510-570 nm bandwidth emission filter (FLIPR™, Molecular Devices, Sunnyvale, CA). […] The peak increase in fluorescence intensity was recorded for each well. […] The peak fluorescence change in each drug-containing well was then expressed relative to the controls.
(§2) Compounds were tested in a high-throughput (HTS) or concentration-response (CoRe) format. In the HTS format, forty-four compounds per plate were examined in duplicates at a concentration of 10^-5 M. To generate concentration-response curves, four compounds per plate were tested in duplicates in a concentration range between 10^-5 and 10^-11 M. The duplicate values were averaged.

hEP3A/Gqi5 = target: T2, hEP3A/Gqi5 (Homo sapiens, UniProt P43115); assay: FLIPR calcium signal study, HEK-293(EBNA) cells; format: cell-based
T2 construct: expressed in transfected cells; host or cells: HEK-293(EBNA)
T2 sequence (P43115 1-390): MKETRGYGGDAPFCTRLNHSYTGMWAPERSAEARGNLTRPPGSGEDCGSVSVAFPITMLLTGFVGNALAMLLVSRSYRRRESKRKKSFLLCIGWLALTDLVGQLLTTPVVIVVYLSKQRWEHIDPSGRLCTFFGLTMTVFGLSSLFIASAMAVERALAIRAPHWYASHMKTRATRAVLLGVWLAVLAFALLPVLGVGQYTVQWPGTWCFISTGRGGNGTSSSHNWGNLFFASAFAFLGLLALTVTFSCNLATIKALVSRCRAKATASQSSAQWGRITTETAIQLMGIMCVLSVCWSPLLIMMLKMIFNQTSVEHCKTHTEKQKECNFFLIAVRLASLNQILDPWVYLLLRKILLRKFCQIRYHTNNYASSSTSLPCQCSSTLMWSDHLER
Experimental: (§3) HEK-293(EBNA) cells, stably expressing one type or subtype of recombinant human prostaglandin receptors (prostaglandin receptors expressed: hDP/Gqs5; hEP1; hEP2/Gqs5; hEP3A/Gqi5; hEP4/Gqs5; hFP; hIP; hTP), were cultured in 100 mm culture dishes in high-glucose DMEM medium containing 10% fetal bovine serum, 2 mM I-glutamine, 250 µg/ml geneticin (G418) and 200 µg/ml hygromycin B as selection markers, and 100 units/ml penicillin G, 100 µg/ml streptomycin and 0.25 µg/ml amphotericin B.
as §1
(§4) Cells were excited with an Argon laser at 488 nm, and emission was measured through a 510-570 nm bandwidth emission filter (FLIPR™, Molecular Devices, Sunnyvale, CA). Drug solution was added in a 50 µl volume to each well to give the desired final concentration. The peak increase in fluorescence intensity was recorded for each well. On each plate, four wells each served as negative (HBSS-HEPES buffer) and positive controls (standard agonists: BW245C (hDP); PGE2 (hEP1; hEP2/Gqs5; hEP3A/Gqi5; hEP4/Gqs5); PGF2α (hFP); carbacyclin (hIP); U-46619 (hTP), depending on receptor). The peak fluorescence change in each drug-containing well was then expressed relative to the controls.
as §2, with “averaged. In either, HTS or CoRe format each compound was tested on at least 3 separate plates using cells from different passages to give an n ≥ 3.” for “averaged.”

hEP4/Gqs5 = target: T3, hEP4/Gqs5 (Homo sapiens, UniProt P35408); assay: FLIPR calcium signal study, HEK-293(EBNA) cells; format: cell-based; details: Table 1; NA means not active; read-out: FUNCTIONAL (Ca2+, EC50, nM) HEP 4
T3 construct: expressed in transfected cells; host or cells: HEK-293(EBNA)
T3 sequence (P35408 whole entry): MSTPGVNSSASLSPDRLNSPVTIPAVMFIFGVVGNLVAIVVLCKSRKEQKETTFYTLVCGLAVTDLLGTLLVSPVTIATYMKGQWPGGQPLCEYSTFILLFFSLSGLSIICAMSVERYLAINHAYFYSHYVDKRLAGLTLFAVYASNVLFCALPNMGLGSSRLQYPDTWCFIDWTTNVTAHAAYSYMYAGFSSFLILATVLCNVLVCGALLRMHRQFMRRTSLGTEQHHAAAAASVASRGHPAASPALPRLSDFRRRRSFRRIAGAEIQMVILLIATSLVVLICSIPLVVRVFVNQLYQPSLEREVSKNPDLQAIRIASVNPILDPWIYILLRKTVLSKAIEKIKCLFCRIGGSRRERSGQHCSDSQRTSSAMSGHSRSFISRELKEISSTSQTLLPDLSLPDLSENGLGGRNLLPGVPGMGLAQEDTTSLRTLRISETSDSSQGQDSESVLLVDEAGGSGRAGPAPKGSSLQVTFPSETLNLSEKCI
Experimental: as §3, §1, §4
as §2, with “averaged. In either, HTS or CoRe format each compound was tested on at least 3 separate plates using cells from different passages to give an n ≥ 3.” for “averaged.”

hTP = target: T4, hTP (Homo sapiens, UniProt P21731); assay: FLIPR calcium signal study, HEK-293(EBNA) cells; format: cell-based; details: Table 1; NA means not active; read-out: FUNCTIONAL (Ca2+, EC50, nM) HTP
T4 construct: expressed in transfected cells; host or cells: HEK-293(EBNA)
T4 sequence (P21731 1-343): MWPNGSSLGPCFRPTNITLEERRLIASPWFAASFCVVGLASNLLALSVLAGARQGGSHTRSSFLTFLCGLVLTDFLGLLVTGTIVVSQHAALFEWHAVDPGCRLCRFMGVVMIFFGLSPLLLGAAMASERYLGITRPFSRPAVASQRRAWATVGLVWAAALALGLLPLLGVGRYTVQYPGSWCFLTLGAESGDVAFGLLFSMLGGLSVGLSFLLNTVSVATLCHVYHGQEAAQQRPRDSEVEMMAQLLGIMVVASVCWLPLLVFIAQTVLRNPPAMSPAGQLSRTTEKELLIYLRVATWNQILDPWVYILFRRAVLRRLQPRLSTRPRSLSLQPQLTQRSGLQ
Experimental: as §3, §1, §4
as §2, with “averaged. In either, HTS or CoRe format each compound was tested on at least 3 separate plates using cells from different passages to give an n ≥ 3.” for “averaged.”

HEP 2 = HEP 2 (Homo sapiens, UniProt P43116); assay: cAMP mediated assay; format: cell-based; details: Table 1; value in brackets, footnote (a)
Sequence of HEP 2 (P43116 whole entry): as the sequence (P43116 whole entry) above

human EP2 receptors = target: T5, human EP2 receptors (Homo sapiens, UniProt P43116); assay: Competition binding, [3H]PGE2, HEK 293 cells stably expressing human EP2 receptors; details: for pKi: Table 2, unit inferred, read-out: BINDING HEP2
T5 construct: expressed in transfected cells; host or cells: HEK 293
T5 sequence (P43116 whole entry): as above
Experimental: Competition binding experiments were performed in a medium containing Hank's balanced salt solution, Hepes 20 mM, pH 7.3, membranes (∼60 µg protein) or 2x10^5 cells from HEK 293 cells stably expressing human EP2 receptors, [^3H]PGE2 (10 nM) and various concentrations of test compounds in a total volume of 300 µl. Reaction mixtures were incubated at 23 °C for 60 min, and were filtered over Whatman GF/B filters under vacuum. Filters were washed three times with 5 ml ice-cold buffer containing 50 mM Tris/HCl (pH 7.3). Non-specific binding was estimated in the presence of excess unlabeled PGE2 (10 µM). Binding data fitted to the binding model for a single class of binding sites, using nonlinear regression analysis.
(§5) HEK-293 cells stably expressing the human or feline FP receptor, or EP1, EP2, or EP4 receptors were washed with TME buffer, scraped from the bottom of the flasks, and homogenized for 30 sec using a Brinkman PT 10/35 polytron. TME buffer was added to achieve a final 40 ml volume in the centrifuge tubes (the composition of TME is 100 mM TRIS base, 20 mM MgCl2, […]; 10N HCl is added to achieve a pH of 7.4).
(§6) The cell homogenate was centrifuged at 19000 r.p.m. for 20 min at 4° C using a Beckman Ti-60 rotor. The resultant pellet was resuspended in TME buffer to give a final 1 mg/ml protein concentration, as determined by Biorad assay. Radioligand binding competition assays vs. [^3H-]17 -phenyl PGF2α (5 nM) were performed in a 100µl volume for 60 min. Binding reactions were started by adding plasma membrane fraction. The reaction was terminated by the addition of 4 ml ice-cold TRIS-HCl buffer and rapid filtration through glass fiber GF/B filters using a Brandel cell harvester. The filters were washed 3 times with ice-cold buffer and oven dried for one hour.
(§7) [^3H-] PGE2 (specific activity 180 Ci mmol) was used as the radioligand for EP receptors. [^3H] 17-phenyl PGF2α was employed for FP receptor binding studies. Binding studies employing EP1, EP2, EP4 and FP receptors were performed in duplicate in at least three separate experiments. A 200µl assay volume was used. Incubations were for 60 min at 25°C and were terminated by the addition of 4 ml of ice-cold 50 mM TRIS-HCl, followed by rapid filtration through Whatman GF/B filters and three additional 4 ml washes in a cell harvester (Brandel). Competition studies were performed using a final concentration of 5 nM [^3H]-PGE2, or 5 nM [^3H] 17-phenyl PGF2α and non-specific binding determined with 10^-5M of unlabeled PGE2, or 17-phenyl PGF2α, according to receptor subtype studied.

EP4 receptors = target: T6, EP4 receptors (Homo sapiens, UniProt P35408); assay: Radioligand binding, EP4 receptor; details: Table 3; read-out: BINDING (Ki, nM) HEP4
T6 construct: expressed in transfected cells; host or cells: HEK-293
T6 sequence (P35408 whole entry): as the sequence (P35408 whole entry) above
Experimental: as §5, §6, §7

HEP3 = target: T7, HEP3 (Homo sapiens, UniProt P43115); assay: Radioligand binding, EP3 receptor; details: Table 3; NA means not active
T7 sequence (P43115 1-390): T2 sequence (P43115 1-390)

[1] = Table 1, NA means not active, read-out: FUNCTIONAL (Ca2+, EC50, nM) HEP 3A
[2] = Table 3, read-out: FUNCTIONAL (Ca2+, EC50, nM) HEP3A

CCCC1(C(O)c2cccc([C@H]3CCC(=O)[C@@H]3CCCCCCC(=O)O)c2)CCC1 (some centres unmarked) [Entry 4]
EC50 (hEP2/Gqs5): 3410 nM
EC50 (hEP3A/Gqi5; [1]): 3830 nM

CC(C)(C)c1ccc([C@H]2CCC(=O)[C@@H]2C/C=C\CCCC(=O)O)cc1 [Entry 8]
EC50 (hEP2/Gqs5): 1050 nM

CCCC1(C(O)c2ccc([C@H]3CCC(=O)[C@@H]3C/C=C\CCCC(=O)O)cc2)CCC1 (some centres unmarked) [Entry 9]
EC50 (hEP2/Gqs5): > 10000 nM
EC50 (hEP4/Gqs5): > 10000 nM

COC(=O)CCC/C=C\C[C@H]1C(=O)CC[C@@H]1c1ccc(C(O)C2CCCCC2)cc1 (some centres unmarked) [Entry 10]
EC50 (hEP2/Gqs5): > 10000 nM

COC(=O)CCCCCC[C@H]1C(=O)CC[C@@H]1c1ccc(C(O)C2CCCCC2)cc1 (some centres unmarked) [Entry 12]
EC50 (hEP2/Gqs5): > 10000 nM
EC50 (hTP): > 10000 nM

O=C(O)CCCCCC[C@H]1C(=O)CC[C@@H]1c1ccc(C(O)C2CCCCC2)cc1 (some centres unmarked) [Entry 13]
EC50 (hEP2/Gqs5): 2050 nM

O=C(O)CCCCCC[C@H]1C(=O)CC[C@@H]1c1ccc(C2(O)CCC2)cc1 [Entry 17]
EC50 (hEP2/Gqs5): > 10000 nM

O=C(O)CCC/C=C\C[C@H]1[C@H](Cl)CC[C@@H]1c1ccc(C(O)C2CCCCC2)cc1 (some centres unmarked) [Entry 19]
EC50 (hEP2/Gqs5): 2100 nM

O=C(O)CCCCCC[C@H]1[C@H](Cl)CC[C@@H]1c1ccc(C(O)C2CCCCC2)cc1 (some centres unmarked) [Entry 21]
EC50 (hEP2/Gqs5): > 10000 nM
EC50 (hTP): > 10000 nM

CCCCCC(O)c1ccc([C@H]2CCC(=O)[C@@H]2CCCc2ccc(C(=O)O)s2)cc1 (some centres unmarked) [Entry 23]
pEC50 (HEP 2): 8.52
EC50 (hEP2/Gqs5): 2 nM
EC50 (hEP3A/Gqi5; [1]): 55 nM
Ki (human EP2 receptors; Table 1, read-out: BINDING (Ki, nM) HEP 2): 54 nM

CCCCCC(O)c1ccc([C@H]2CCC(=O)[C@@H]2C/C=C\CCCC(=O)OC)cc1 (some centres unmarked) [drawing 96]
pEC50 (hEP2/Gqs5): 4.82
pKi (human EP2 receptors): 4.82

CCCCCC(O)c1ccc([C@H]2CCC(=O)[C@@H]2C/C=C\CCCC(=O)O)cc1 (some centres unmarked) [drawing 97]
pEC50 (hEP2/Gqs5): 6.00
pKi (human EP2 receptors): 6.15

CCCCCC(O)c1ccc([C@H]2CCC(=O)[C@@H]2C/C=C\CCCC(=O)OC)cc1 (some centres unmarked) [drawing 115]
Ki (EP4 receptors): 15000 nM
EC50 (hEP3A/Gqi5; [2]): 15000 nM

CCCCCC(O)c1ccc([C@H]2CCC(=O)[C@@H]2C/C=C\CCCC(=O)O)cc1 (some centres unmarked) [drawing 116]
Ki (EP4 receptors): 15000 nM
Ki (HEP3): 15000 nM
EC50 (hEP3A/Gqi5; [2]): 552 nM
